Where two headings read alike, the source gives them in different places. Where a SMILES comes first, the peptide text is derived from it. [ ]: non-standard residue; d: D form. pS = N[C@@H](COP(=O)(O)O)C(=O)O
Tests used:
[1] = target: T1, 14-3-3 isoform epsilon (Homo sapiens, UniProt P62258); experiment: Label-free microscale thermophoresis (MST) binding, 14-3-3 epsilon; conditions: label-free MST, 0.6 µM 14-3-3 protein, 25 mM MES pH 6.5, 5 mM MgCl2, 5 mM CaCl2, 25°C; Kd from duplicate measurements; read-out: Affinity estimates by MicroScale Thermophoresis, 14-3-3 isoform epsilon (Kd)
T1 construct: His6; made in house; host or cells: Escherichia coli BL21 Rosetta (DE3)
T1 sequence (P62258 1-255): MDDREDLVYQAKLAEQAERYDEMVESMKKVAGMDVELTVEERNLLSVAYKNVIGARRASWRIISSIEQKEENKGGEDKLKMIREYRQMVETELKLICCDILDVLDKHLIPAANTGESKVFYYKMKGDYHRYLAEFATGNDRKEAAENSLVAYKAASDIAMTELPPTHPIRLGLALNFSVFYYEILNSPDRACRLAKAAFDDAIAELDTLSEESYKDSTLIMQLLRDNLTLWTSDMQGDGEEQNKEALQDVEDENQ
Procedure: (§1) The binding of phosphorylated sirtuin peptides (Fig. 1 ▸) was analyzed using the change in the intrinsic fluorescence signal of the 14-3-3 proteins measured with label-free microscale thermophoresis using a Nanotemper Monolith NT.LabelFree or NT.115. A typical binding experiment using 0.6 µM 14-3-3 protein was performed in a modified MST buffer consisting of 25 mM MES pH 6.5, 5 mM MgCl2, 5 mM CaCl2. The measurements were performed at 25°C using a LED power of 10–40%. All measurements were performed at least in duplicate, and the results shown are representative measurements individually fitted using GraFit 7 (Erathicus Software, Horley, United Kingdom).
(§2) Figure 1 Classification and analysis of sirtuin PSSM results for potential 14-3-3 phosphoserine binding sites. Peptides with a gray background were not analyzed experimentally. Score is the overall PSSM score for the phosphorylation site; rank is the order within the 17 proposed sirtuin binding sites. Conserved residues in the 14-3-3 motifs are marked in green. Residues with restricted (proline) or very flexible (glycine) protein backbone or with a very large side chain (tryptophan) are marked in red. Amino acids with the same or similar hydrophobicity/size are shown in magenta. Kd values from duplicate measurements are colored green for Kd < 100 µM. Fields marked in red indicate no binding or no successful experiment. TEXT PRINTED IN THE PICTURE: Sirt1 S26: Affinity estimates by MicroScale Thermophoresis [μM], 14-3-3 isoform sigma: none | Sirt1 S670: Affinity estimates by MicroScale Thermophoresis [μM], 14-3-3 isoform gamma: aggr.; Affinity estimates by MicroScale Thermophoresis [μM], 14-3-3 isoform epsilon: > 183; Affinity estimates by MicroScale Thermophoresis [μM], 14-3-3 isoform theta: 93; Affinity estimates by MicroScale Thermophoresis [μM], 14-3-3 isoform sigma: 5 | Sirt3 S103: Affinity estimates by MicroScale Thermophoresis [μM], 14-3-3 isoform gamma: aggr.; Affinity estimates by MicroScale Thermophoresis [μM], 14-3-3 isoform epsilon: > 267; Affinity estimates by MicroScale Thermophoresis [μM], 14-3-3 isoform theta: 52; Affinity estimates by MicroScale Thermophoresis [μM], 14-3-3 isoform sigma: 10 | Sirt3 S103wt: Affinity estimates by MicroScale Thermophoresis [μM], 14-3-3 isoform gamma: aggr.; Affinity estimates by MicroScale Thermophoresis [μM], 14-3-3 isoform theta: none; Affinity estimates by MicroScale Thermophoresis [μM], 14-3-3 isoform sigma: none | Sirt3 S105: Affinity estimates by MicroScale Thermophoresis [μM], 14-3-3 isoform gamma: aggr.; Affinity estimates by MicroScale Thermophoresis [μM], 14-3-3 isoform epsilon: > 215; Affinity estimates by MicroScale Thermophoresis [μM], 14-3-3 isoform theta: 60; Affinity estimates by MicroScale Thermophoresis [μM], 14-3-3 isoform sigma: none | Sirt5 S168: Affinity estimates by MicroScale Thermophoresis [μM], 14-3-3 isoform epsilon: aggr.; Affinity estimates by MicroScale Thermophoresis [μM], 14-3-3 isoform theta: aggr.; Affinity estimates by MicroScale Thermophoresis [μM], 14-3-3 isoform sigma: > 329 | Sirt6 T337: Affinity estimates by MicroScale Thermophoresis [μM], 14-3-3 isoform epsilon: > 420; Affinity estimates by MicroScale Thermophoresis [μM], 14-3-3 isoform sigma: 12 | Sirt6 S338: Affinity estimates by MicroScale Thermophoresis [μM], 14-3-3 isoform epsilon: 19; Affinity estimates by MicroScale Thermophoresis [μM], 14-3-3 isoform sigma: 24 | Sirt7 S136: Affinity estimates by MicroScale Thermophoresis [μM], 14-3-3 isoform epsilon: none; Affinity estimates by MicroScale Thermophoresis [μM], 14-3-3 isoform theta: 30; Affinity estimates by MicroScale Thermophoresis [μM], 14-3-3 isoform sigma: 49

[2] = target: T2, 14-3-3 isoform theta (Homo sapiens, UniProt P27348); experiment: Label-free microscale thermophoresis (MST) binding, 14-3-3 theta; conditions: label-free MST, 0.6 µM 14-3-3 protein, 25 mM MES pH 6.5, 5 mM MgCl2, 5 mM CaCl2, 25°C; Kd from duplicate measurements; read-out: Affinity estimates by MicroScale Thermophoresis, 14-3-3 isoform theta (Kd)
T2 construct: His6; made in house; host or cells: Escherichia coli BL21 Rosetta (DE3)
T2 sequence (P27348 1-245): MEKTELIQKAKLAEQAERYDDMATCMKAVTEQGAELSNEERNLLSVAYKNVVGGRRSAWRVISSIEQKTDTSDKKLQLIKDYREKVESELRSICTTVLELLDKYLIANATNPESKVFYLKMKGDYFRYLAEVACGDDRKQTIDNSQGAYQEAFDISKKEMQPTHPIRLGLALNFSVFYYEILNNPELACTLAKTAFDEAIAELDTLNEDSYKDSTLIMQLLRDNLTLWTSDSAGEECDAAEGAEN
Procedure: as §1, §2

[3] = target: T3, 14-3-3σ-ΔC (Homo sapiens, UniProt P31947); experiment: Label-free microscale thermophoresis (MST) binding, 14-3-3σ
T3 construct: His6; made in house; host or cells: Escherichia coli BL21 Rosetta (DE3)
T3 sequence (P31947 1-231 limits assumed): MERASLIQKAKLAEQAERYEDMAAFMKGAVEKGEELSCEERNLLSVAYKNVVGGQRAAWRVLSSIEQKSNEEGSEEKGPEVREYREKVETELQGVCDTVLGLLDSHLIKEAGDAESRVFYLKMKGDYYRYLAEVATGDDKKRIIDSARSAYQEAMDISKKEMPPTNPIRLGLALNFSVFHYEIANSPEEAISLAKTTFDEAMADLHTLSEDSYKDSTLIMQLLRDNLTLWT
Procedure: as §1, §2
For nine of the sites, including sites from all sirtuin isoforms except Sirt4, endecameric phosphopeptides were chemically synthesized for in vitro analysis. […]

## CC(C)C[C@H](NC(=O)[C@@H](N)C(C)C)C(=O)N[C@@H](CO)C(=O)N[C@@H](CO)C(=O)N[C@@H](CO)C(=O)N[C@@H](COP(=O)(O)O)C(=O)N[C@@H](CS)C(=O)NCC(=O)N[C@@H](CO)C(=O)N[C@@H](CC(N)=O)C(=O)N[C@@H](CO)C(=O)O [Sirt1^pS670] (H-VLSSS[pS]CGSNS-OH)
[1]
  Kd: > 183 µM
[2]
  Kd: 93 µM
[3]; Fig. 1, label-free MST, 0.6 µM 14-3-3 protein, 25 mM MES pH 6.5, 5 mM MgCl2, 5 mM CaCl2, 25°C, Kd from duplicate measurements, read-out: Affinity estimates by MicroScale Thermophoresis, 14-3-3 isoform sigma (Kd)
  Kd: 5 µM
[3]; Fig. 3a, average of two independent MST experiments, 25°C, MES pH 6.5, read-out: average Kd, MST titration of 14-3-3σ-ΔC
  Kd: 1.7 ± 1.3 µM

Source: PMC12809495, “Potential 14-3-3 binding sites in sirtuins reveal extended phosphosite-recognition modes” (Acta Crystallographica Section F: Structural Biology …, 2026)
